Measured values from patent US6479435B1, “Diaryl ethers and processes for their preparation and herbicidal and desiccant compositions containing them” (ISK Americas Incorporated, priority 1997, dated 2002).

Key:
Type in all cases: in vivo
[1] = tested on: lambsquarters (Chenopodium album, CHEAL); assay: Pre-emerge greenhouse herbicide test, phytotoxicity rating; conditions: Chenopodium album, pre-emergence, 336 h, 14 days after application, rating scale 0-100; for pest or weed control at 125 g/ha: Rate 125 g al/ha; for pest or weed control at 500 g/ha: Rate 500 g al/ha
In short: (§1)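 Seeds sown in sandy loam mix one day before track-sprayer application of compounds in acetone at 125–1000 g ai/ha (187 l/ha), then surface-watered to incorporate and bottom-watered. Visual rating 14 days after application on a 0–100 scale (0 = no damage, 100 = all plants dead).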

[2] = tested on: ivyleaf morningglory (Ipomoea hederacea, IPOHE); assay: as above; conditions: Ipomoea, pre-emergence, 336 h, 14 days after application, rating scale 0-100; for pest or weed control at 125 g/ha: Rate 125 g al/ha; for pest or weed control at 500 g/ha: Rate 500 g al/ha
In short: as §1

[3] = tested on: sicklepod (Cassia obtusifolia, CASOB); assay: as above; conditions: Senna obtusifolia, pre-emergence, 336 h, 14 days after application, rating scale 0-100; for pest or weed control at 125 g/ha: Rate 125 g al/ha; for pest or weed control at 500 g/ha: Rate 500 g al/ha
In short: as §1

[4] = tested on: green foxtail (Setaria viridis, SETVI); assay: as above; conditions: Setaria viridis, pre-emergence, 336 h, 14 days after application, rating scale 0-100; for pest or weed control at 125 g/ha: Rate 125 g al/ha; for pest or weed control at 500 g/ha: Rate 500 g al/ha
In short: as §1

[5] = tested on: Johnsongrass (Sorghum halepense, SORHA); assay: as above; conditions: Sorghum halepense, pre-emergence, 336 h, 14 days after application, rating scale 0-100; for pest or weed control at 125 g/ha: Rate 125 g al/ha; for pest or weed control at 500 g/ha: Rate 500 g al/ha
In short: as §1

[6] = tested on: velvetleaf (Abutilon theophrasti, ABUTH); assay: as above; conditions: Abutilon theophrasti, pre-emergence, 336 h, 14 days after application, rating scale 0-100; for pest or weed control at 125 g/ha: Rate 125 g al/ha; for pest or weed control at 500 g/ha: Rate 500 g al/ha
In short: as §1

[7] = tested on: lambsquarters (Chenopodium album, CHEAL); assay: Post-emerge greenhouse herbicide test, phytotoxicity rating; conditions: Chenopodium album, post-emergence, 336 h, 14 days after application, scale 0-100; for pest or weed control at 63 g/ha: rate 63 g ai/ha; for pest or weed control at 500 g/ha: rate 500 g ai/ha
In short: (§2)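 Compounds in acetone with 0.25% v/v non-ionic surfactant were track-sprayed at 187 l/ha over plants at the 2-3 leaf stage, at 63 to 1000 g ai/ha. Pots were bottom-watered. Injury was scored visually 14 days later on a 0-100 scale, where 0 is no damage and 100 is complete plant death.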

[8] = tested on: large crabgrass (Digitaria sanguinalis, DIGSA); assay: as above; conditions: Digitaria sanguinalis, post-emergence, 336 h, 14 days after application, scale 0-100; for pest or weed control at 63 g/ha: rate 63 g ai/ha; for pest or weed control at 500 g/ha: rate 500 g ai/ha
In short: as §2

[9] = tested on: barnyardgrass (Echinochloa crusgalli, ECHCG); assay: as above; conditions: Echinochloa crus-galli, post-emergence, 336 h, 14 days after application, scale 0-100; for pest or weed control at 63 g/ha: rate 63 g ai/ha; for pest or weed control at 500 g/ha: rate 500 g ai/ha
In short: as §2

[10] = tested on: ivyleaf morningglory (Ipomoea hederacea, IPOHE); assay: as above; conditions: Ipomoea, post-emergence, 336 h, 14 days after application, scale 0-100; for pest or weed control at 63 g/ha: rate 63 g ai/ha; for pest or weed control at 500 g/ha: rate 500 g ai/ha
In short: as §2

[11] = tested on: sicklepod (Cassia obtusifolia, CASOB); assay: as above; conditions: Senna obtusifolia, post-emergence, 336 h, 14 days after application, scale 0-100; for pest or weed control at 63 g/ha: rate 63 g ai/ha; for pest or weed control at 500 g/ha: rate 500 g ai/ha
In short: as §2

[12] = tested on: redroot pigweed (Amaranthus retroflexus, AMARE); assay: as above; conditions: Amaranthus retroflexus, post-emergence, 336 h, 14 days after application, scale 0-100; for pest or weed control at 63 g/ha: rate 63 g ai/ha; for pest or weed control at 500 g/ha: rate 500 g ai/ha
In short: as §2

[13] = tested on: green foxtail (Setaria viridis, SETVI); assay: as above; conditions: Setaria viridis, post-emergence, 336 h, 14 days after application, scale 0-100; for pest or weed control at 63 g/ha: rate 63 g ai/ha; for pest or weed control at 500 g/ha: rate 500 g ai/ha
In short: as §2

[14] = tested on: Johnsongrass (Sorghum halepense, SORHA); assay: as above; conditions: Sorghum halepense, post-emergence, 336 h, 14 days after application, scale 0-100; for pest or weed control at 63 g/ha: rate 63 g ai/ha; for pest or weed control at 500 g/ha: rate 500 g ai/ha
In short: as §2

[15] = tested on: velvetleaf (Abutilon theophrasti, ABUTH); assay: as above; conditions: Abutilon theophrasti, post-emergence, 336 h, 14 days after application, scale 0-100; for pest or weed control at 63 g/ha: rate 63 g ai/ha; for pest or weed control at 500 g/ha: rate 500 g ai/ha
In short: as §2

Compound | pest or weed control at 125 g/ha [1] | pest or weed control at 500 g/ha [1] | pest or weed control at 125 g/ha [2] | pest or weed control at 500 g/ha [2] | pest or weed control at 125 g/ha [3] | pest or weed control at 500 g/ha [3] | pest or weed control at 125 g/ha [4] | pest or weed control at 500 g/ha [4] | pest or weed control at 125 g/ha [5] | pest or weed control at 500 g/ha [5] | pest or weed control at 125 g/ha [6] | pest or weed control at 500 g/ha [6] | pest or weed control at 63 g/ha [7] | pest or weed control at 500 g/ha [7] | pest or weed control at 63 g/ha [8] | pest or weed control at 500 g/ha [8] | pest or weed control at 63 g/ha [9] | pest or weed control at 500 g/ha [9] | pest or weed control at 63 g/ha [10] | pest or weed control at 500 g/ha [10] | other results
Nn1c(C(F)(F)F)cc(=O)n(-c2cc(Oc3ncccc3[N+](=O)[O-])c(Cl)cc2F)c1=O [Compound 9-1, 1-amino-3-[4-chloro-2-fluoro-5-(3-nitro-2-pyridyloxy)phenyl]-6-trifluoromethyl-1,2,3,4-tetrahydropyrimidine-2,4-dione] | 100% | 100% | 100% | 100% | 30% | 90% | 99% | 100% | 95% | 99% | 100% | 100% | 95% | 100% | 20% | 50% | 30% | 100% | 100% | 100% | pest or weed control at 63 g/ha [11]: 30%; pest or weed control at 500 g/ha [11]: 30%; pest or weed control at 63 g/ha [12]: 100%; pest or weed control at 500 g/ha [12]: 100%; pest or weed control at 63 g/ha [13]: 20%; pest or weed control at 500 g/ha [13]: 90%; pest or weed control at 63 g/ha [14]: 70%; pest or weed control at 500 g/ha [14]: 99%; pest or weed control at 63 g/ha [15]: 100%; pest or weed control at 500 g/ha [15]: 100%
Nn1c(C(F)(F)F)cc(=O)n(-c2cc(Oc3ccc(Cl)cn3)c(Cl)cc2F)c1=O [Compound 9-3, 1-Amino-3-[4-chloro-2-fluoro-5-(5-chloro-2-pyridyloxy)phenyl]-6-trifluoromethyl-1,2,3,4-tetrahydropyrimidine-2,4-dione] | 100% | 100% | 40% | 100% | 0% | 70% | 100% | 100% | 70% | 99% | 100% | 100% | 95% | 100% | 30% | 95% | 0% | 90% | 100% | 100% | pest or weed control at 63 g/ha [11]: 20%; pest or weed control at 500 g/ha [11]: 95%; pest or weed control at 63 g/ha [12]: 100%; pest or weed control at 500 g/ha [12]: 100%; pest or weed control at 63 g/ha [13]: 20%; pest or weed control at 500 g/ha [13]: 95%; pest or weed control at 63 g/ha [14]: 10%; pest or weed control at 500 g/ha [14]: 90%; pest or weed control at 63 g/ha [15]: 100%; pest or weed control at 500 g/ha [15]: 100%
Nn1c(C(F)(F)F)cc(=O)n(-c2cc(Oc3ccccc3[N+](=O)[O-])c(Cl)cc2F)c1=O [Compound 9-21, 1-amino-3-[4-chloro-2-fluoro-5-(2-nitrophenoxy)phenyl]-6-trifluoromethyl-1,2,3,4-tetrahydropyrimidine-2,4-dione] | 100% | 100% | 60% | 100% | 30% | 90% | 100% | 100% | 90% | 100% | 100% | 100% | 100% | 100% | 30% | 90% | 70% | 100% | 100% | 100% | pest or weed control at 63 g/ha [11]: 100%; pest or weed control at 500 g/ha [11]: 100%; pest or weed control at 63 g/ha [12]: 100%; pest or weed control at 500 g/ha [12]: 100%; pest or weed control at 63 g/ha [13]: 90%; pest or weed control at 500 g/ha [13]: 100%; pest or weed control at 63 g/ha [14]: 60%; pest or weed control at 500 g/ha [14]: 90%; pest or weed control at 63 g/ha [15]: 100%; pest or weed control at 500 g/ha [15]: 100%
Nn1c(C(F)(F)F)cc(=O)n(-c2cc(Oc3ccc([N+](=O)[O-])cc3C(F)(F)F)c(Cl)cc2F)c1=O [Compound 9-22, 1-Amino-3-[4-chloro-2-fluoro-5-(4-nitro-2-trifluoromethylphenoxy)phenyl]-6-trifluoromethyl-1,2,3,4-tetrahydropyrimidine-2,4-dione] | 100% | 100% | 90% | 80% | 30% | 80% | 90% | 100% | 50% | 95% | 100% | 100% | 40% | 100% | 10% | 50% | 20% | 90% | 100% | 100% | pest or weed control at 63 g/ha [11]: 30%; pest or weed control at 500 g/ha [11]: 70%; pest or weed control at 63 g/ha [12]: 100%; pest or weed control at 500 g/ha [12]: 100%; pest or weed control at 63 g/ha [13]: 10%; pest or weed control at 500 g/ha [13]: 80%; pest or weed control at 63 g/ha [14]: 0%; pest or weed control at 500 g/ha [14]: 80%; pest or weed control at 63 g/ha [15]: 100%; pest or weed control at 500 g/ha [15]: 100%
